One compound from patent US9480695B2, “Methods for inducing orexin neurons and agent for treating narcolepsy or eating disorder” (THE UNIVERSITY OF TOKYO, priority 2011, dated 2016) can be followed below.

Structures are written as SMILES.

Type in all cases: cell-based
Experiment [1] concerns Mouse ES cells (J1 strain). In words: Induction of Hcrt expression in neural differentiation from mouse ES cells, SDIA differentiation culture system, RT-PCR. The method, then:
Mouse ES cells (J1 strain) which had been maintained in a medium for an ES cell [DMEM (Wako) added with 15% FBS (Biowest), 1 mM sodium pyruvate (Invitrogen), […] (Invitrogen), 2 mM L-glutamine (Invitrogen), 1 mM non essential amino acid (Invitrogen), 50 U/ml penicillin/50 μg/ml streptomycin (Invitrogen), 2000 U leukemia inhibitory factor (Chemicon, CA)] were seeded on a 10 cm culture dish so that the cell count became 1×10^5 cells per culture dish on which PA6 stromal cells had been seeded in advance, and differentiation induction was performed in a medium for neural differentiation [Glasgow MEM (Invitrogen) added with 10% KSR (Invitrogen), […] (Invitrogen), 1 mM non essential amino acid (Invitrogen), 50 U/ml penicillin/50 μg/ml streptomycin (Invitrogen)] for 10 days. On 4th and 7th days of differentiation culturing, the medium was exchanged. In addition, from 4th day of differentiation culturing, 5 nM recombinant human BMP4 (Wako) was added (FIG. 1). On 10th day of differentiation culturing, cells were collected and pelletized by a centrifugation operation to remove the culture medium. Thereafter, the pellets were immediately frozen in liquid nitrogen and stored at −80° C. until use.
The total RNA was extracted from the collected cells using RNeasy plus Mini Kit (QIAGEN). Then, a reverse transcription reaction was performed in a reaction liquid containing 1 μg of the total RNA, and Oligo (dT) using SuperScript III First Strand Synthesis System (Invitrogen) to synthesize a cDNA.
A PCR reaction was performed on a 10 μl scale, 1 U of LA-Taq DNA Polymerase (Takara) was added to 0.5 μl of a cDNA, 5 μl of 2×GC Buffer I, each 200 μM of dNTP, 1.5 mM MgCl2, and each primer having a final concentration of 0.2 μM, thermal denaturation was performed at 95° C. for 3 minutes, and the reaction was performed under the condition of (30 seconds at 95° C., 30 seconds at 55° C., and 30 seconds at 72° C.)×35 cycles (20 cycles in the case of Actb). The primers used are shown below.
Each PCR product was electrophoresed on a 2% agarose gel, stained with ethidium bromide, and a band was observed by UV irradiation.

Experiment [2] relates to human iPS cell strain 201B7. The experiment is described as follows: Orexin-positive cells in neurally differentiated colony induced from human iPS cell, immunostaining. Particulars: differentiation as in Example 5; anti-human orexin antibody fluorescence. The method, then: Cells which had been differentiation-induced on a 4-well culture plate by the method described in Example 5 were fixed with a 4% paraformalin solution, and cellular membrane permeability treatment was performed with a 0.2% Triton-X100 solution. The cells were treated with a 5% bovine serum albumin solution, followed by treatment with a primary antibody (anti-human orexin antibody, anti-human tubulin III antibody) at 4° C. overnight. After a reaction with a secondary labeled antibody (Alex-Fluor 488-labeled donkey anti-goat antibody, Alexa-Fluor 594-labeled rabbit anti-mouse antibody), a nuclear DNA was stained with DAPI.

The subject of experiment [3] is human-derived pluripotent stem cell. In words: Hcrt expression in human-derived pluripotent stem cell (similar effect to Experiment 1). The settings on record: stated as similar to Experiment 1.
Experiment [4] relates to human iPS cell strain 201B7. In words: Hcrt expression with ManNAc plus Sirt inhibitor and Ogt inhibitor, neural differentiation from human iPS cell, RT-PCR. Particulars: ManNAc 1.0 mM from 0th day, EX-527 50 nM and/or BADGP 5 mM on 14th day, collected 20th day; FIG. 10. Here is the method:
A human iPS cell strain 201B7 (HSP0001) was obtained from Riken BioResource Center via National BioResource Project (MEXT, Japan). The human iPS cell was maintained on a feeder layer of a mitomycin C-treated STO/Neo resistant/LIF (SNL) feeder cell in a primate ES medium (ReproCELL) complemented with 5 ng/mL recombinant human bFGF (Wako). The human iPS cell was co-cultured with PA6 for 20 days, for differentiation induction into a nerve with a SIDA and BMP4 system. From 7th day, 5 nM BMP4 was complemented. A detailed protocol of differentiation induction into a nerve cell is shown in the lower column of FIG. 11. From the initiation of differentiation culturing (0th day), ManNAc was added to a neural differentiation medium so that the concentration became 1.0 mM, and on 7th, 10th and 14th days of differentiation culturing, the medium was exchanged. In addition, from 7th day of differentiation culturing, 5 nM recombinant human BMP4 (Wako) was added. On 14th day of differentiation culturing, EX-527 (SIGMA-ALDRICH) was added to a neural differentiation medium so that the concentration became 50 nM, or BADGP (SIGMA-ALDRICH) was added to a neural differentiation medium so that the concentration became 5 mM, and on 20th day of differentiation culturing, cells were collected and subjected to RT-PCR. The conditions of RT-PCR are the same as those of Example 1.

In experiment [5] the test system is Mouse ES cells (J1 strain). In words: Hcrt expression with ManNAc plus Sirt inhibitor or Ogt inhibitor, neural differentiation from mouse ES cell, RT-PCR. Particulars: ManNAc 1.0 mM from 0th day, BADGP 1 mM or 5 mM on 7th day, collected 10th day; FIG. 9. Here is the method:
According to the same manner as that described in Example 1, mouse ES cells (J1 strain) were cultured for 10 days for differentiation induction into a nerve cell. A protocol of inducing differentiation into a nerve cell is shown in the upper column of FIG. 11. From the initiation of differentiation culturing (0th day), ManNAc was added to a neural differentiation medium so that the concentration became 1.0 mM, and the medium was exchanged on 4th and 7th days of differentiation culturing. In addition, from 4th day of differentiation culturing, 5 nM recombinant human BMP4 (Wako) was added. On 7th day of differentiation culturing, EX-527 (SIGMA-ALDRICH) was added to a neural differentiation medium so that the concentration became 50 nM or BADGP (SIGMA-ALDRICH) was added to a neural differentiation medium so that the concentration became 1 or 5 mM, and on 10th day of differentiation culturing, cells were collected and subjected to RT-PCR. The conditions of RT-PCR are the same as those of Example 1.

On to `CC(=O)N[C@@H]1C(O)O[C@H](CO)[C@@H](O)[C@@H]1O` (stereo partly drawn) [ManNAc, N-acetyl-D-mannosamine], for which the “Level of Hcrt expression by addition period” value in experiment [1] (1.0 mM ManNAc, added on 4th to 10th, 7th to 10th and 0th to 10th days versus 0th to 4th and 0th to 7th days) was “high expression was observed in the section in which ManNAc was added to a medium on and after 7th day of differentiation”. Besides, the “Expression of Hcrt with changed time of addition” value in experiment [1] (1.0 mM, addition time varied, FIG. 3) was “expression of Hcrt was observed only in a ManNAc-added section at any addition time”. Besides, the “Expression of an orexin gene (Hcrt)” value is “expression of Hcrt was recognized only in a ManNAc-added section” in experiment [1] (added from initiation of differentiation culturing at 0.2 and 1.0 mM, cells collected on 10th day, FIG. 2); “recognized in a ManNAc-added section and an EX-527-added section to the same extent” in experiment [4]; “expression of Hcrt which had been recognized in a ManNAc-added section” in experiment [5]. In experiment [2], the “ratio of orexin-positive cells in a neurally differentiated colony” value was determined as 4.9%. In addition, the “Expression of Hcrt in a human-derived pluripotent stem cell” value in experiment [3] is “a similar effect was obtained”.
